Earlier results on 1 substance are cited in US6653293B1, “Methods, apparatuses and medicaments for treating body fluid related diseases” (priority 1992, dated 2003).

The series deals with infected T-4 lymphocytes. The conditions noted are these: in vitro, HIV-infected T-4 lymphocytes.

Regarding tumor necrosis factor [TNF], the “death of infected cells” value is recorded as “subjects the infected cells to death” and the “time to coagulation of DNA of the infected T-4 lymphocytes after administration” value was “about 3 hours”.
